Measurements reported in ChEMBL document CHEMBL5608163, “Structure modification of anoplin for fighting resistant bacteria” (Eur J Med Chem, 2024).
≈ marks a conversion by molar mass, not a printed value. Bridge positions count the residues as written; N and C are the ends. Square brackets hold non-standard residues; d marks the D form. Peptide text beside a SMILES is read from it. I, II: the chains in the order shown. * marks the point of attachment. 2Nal = N[C@@H](Cc1ccc2ccccc2c1)C(=O)O; Aoc(2) = CCCCCC[C@H](N)C(=O)O; Lauroyl = CCCCCCCCCCCC(=O)*; hSer = N[C@@H](CCO)C(=O)O; Nle = CCCC[C@H](N)C(=O)O; Orn = NCCC[C@H](N)C(=O)O; Nva = CCC[C@H](N)C(=O)O; Dap = NC[C@H](N)C(=O)O

What was measured:
Staphylococcus aureus = experiment: Antibacterial activity against Staphylococcus aureus ATCC 25923 assessed as reduction in bacterial cell growth incubated for 16 to 24 hrs by CLSI-protocol based Mueller-Hinton Broth micro-dilution method; format: functional; details: time 16-24 hrs
Bacillus subtilis = experiment: Antibacterial activity against Bacillus subtilis ATCC 23857 assessed as reduction in bacterial cell growth incubated for 16 to 24 hrs by CLSI-protocol based Mueller-Hinton Broth micro-dilution method; format: functional; details: time 16-24 hrs
Pseudomonas aeruginosa = experiment: Antibacterial activity against Pseudomonas aeruginosa ATCC 27853 assessed as reduction in bacterial cell growth incubated for 16 to 24 hrs by CLSI-protocol based Mueller-Hinton Broth micro-dilution method; format: functional; details: time 16-24 hrs
Klebsiella pneumoniae = experiment: Antibacterial activity against Klebsiella pneumoniae ATCC 700603 assessed as reduction in bacterial cell growth incubated for 16 to 24 hrs by CLSI-protocol based Mueller-Hinton Broth micro-dilution method; format: functional; details: time 16-24 hrs
Escherichia coli [1] = experiment: Antibacterial activity against Escherichia coli ATCC 25922 assessed as reduction in bacterial cell growth incubated for 16 to 24 hrs by CLSI-protocol based Mueller-Hinton Broth micro-dilution method; format: functional; details: time 16-24 hrs
Escherichia coli [2] = experiment: Antimicrobial activity against Escherichia coli ATCC 25922 assessed as reduction in microbial growth measured after 24 hrs by CLSI based broth microdilution method; format: functional
Erythrocyte = experiment: Hemolytic activity in human erythrocytes incubated for 1 hr by ELISA reader analysis; format: toxicity, cell-based

CCCCCCCCCCCC(=O)NCC(=O)N[C@@H](CC(C)C)C(=O)N[C@@H](CC(C)C)C(=O)N[C@@H](CCCCN)C(=O)N[C@@H](CCCNC(=N)N)C(=O)N[C@H](C(=O)N[C@@H](CCCCN)C(=O)N[C@H](C(=O)N[C@@H](CC(C)C)C(=O)N[C@@H](CC(C)C)C(=O)NCCCC[C@H](NC(=O)[C@H](CCCCNC(=O)[C@H](CC(C)C)NC(=O)[C@H](CC(C)C)NC(=O)[C@@H](NC(=O)[C@H](CCCCN)NC(=O)[C@@H](NC(=O)[C@H](CCCNC(=N)N)NC(=O)[C@H](CCCCN)NC(=O)[C@H](CC(C)C)NC(=O)[C@H](CC(C)C)NC(=O)CNC(=O)CCCCCCCCCCC)[C@@H](C)CC)[C@@H](C)O)NC(=O)[C@H](CC(C)C)NC(=O)[C@H](CC(C)C)NC(=O)[C@@H](NC(=O)[C@H](CCCCN)NC(=O)[C@@H](NC(=O)[C@H](CCCNC(=N)N)NC(=O)[C@H](CCCCN)NC(=O)[C@H](CC(C)C)NC(=O)[C@H](CC(C)C)NC(=O)CNC(=O)CCCCCCCCCCC)[C@@H](C)CC)[C@@H](C)O)C(N)=O)[C@@H](C)O)[C@@H](C)CC (I: Lauroyl-GLLKRIKTLLKK-NH2 / II: Lauroyl-GLLKRIKTLL / III: Lauroyl-GLLKRIKTLL; amide I:11-III:C, I:12-II:C)
MIC (Staphylococcus aureus): 64 µM (≈ 271 µg/mL) | MIC (Bacillus subtilis): 256 µM (≈ 1080 µg/mL) | MIC (Pseudomonas aeruginosa): 64 µM (≈ 271 µg/mL) | MIC (Klebsiella pneumoniae): 64 µM (≈ 271 µg/mL) | MIC (Escherichia coli [1]): 64 µM (≈ 271 µg/mL)

CCCC[C@H](NC(=O)[C@H](CC(C)C)NC(=O)[C@@H](NC(=O)[C@H](CCCCN)NC(=O)[C@@H](NC(=O)[C@H](CCCNC(=N)N)NC(=O)[C@H](CCCCN)NC(=O)[C@H](CC(C)C)NC(=O)[C@H](CCCC)NC(=O)CN)[C@@H](C)CC)[C@@H](C)O)C(N)=O (H-G[Nle]LKRIKTL[Nle]-NH2)
MIC (Escherichia coli [2]): 100 µM | HC10 (Erythrocyte): > 500 µM

CC(C)C[C@H](NC(=O)[C@H](C)NC(=O)CN)C(=O)N[C@@H](CCCCN)C(=O)N[C@@H](CCCNC(=N)N)C(=O)N[C@@H](Cc1ccc2ccccc2c1)C(=O)N[C@@H](CCCCN)C(=O)N[C@H](C(=O)N[C@@H](CC(C)C)C(=O)N[C@@H](C)C(N)=O)[C@@H](C)O (H-GALKR[2Nal]KTLA-NH2)
MIC (Escherichia coli [2]): > 200 µM | HC10 (Erythrocyte): > 500 µM

CCCCCC[C@H](NC(=O)[C@H](CC(C)C)NC(=O)[C@@H](NC(=O)[C@H](CCCCN)NC(=O)[C@@H](NC(=O)[C@H](CCCNC(=N)N)NC(=O)[C@H](CCCCN)NC(=O)[C@H](CC(C)C)NC(=O)[C@H](CCCCCC)NC(=O)CN)[C@@H](C)CC)[C@@H](C)O)C(N)=O (H-G[Aoc(2)]LKRIKTL[Aoc(2)]-NH2)
MIC (Escherichia coli [2]): 6.25 µM | HC10 (Erythrocyte): 71 µM

CC[C@H](C)[C@H](NC(=O)[C@H](CCCNC(=N)N)NC(=O)[C@H](CCCCN)NC(=O)[C@H](CC(C)C)NC(=O)[C@H](CCSC)NC(=O)CN)C(=O)N[C@@H](CCCCN)C(=O)N[C@H](C(=O)N[C@@H](CC(C)C)C(=O)N[C@@H](CCSC)C(N)=O)[C@@H](C)O (H-GMLKRIKTLM-NH2)
MIC (Escherichia coli [2]): > 200 µM | HC10 (Erythrocyte): 500 µM

CC[C@H](C)[C@H](NC(=O)[C@H](CCCNC(=N)N)NC(=O)[C@H](CO)NC(=O)[C@H](CC(C)C)NC(=O)[C@H](CC(C)C)NC(=O)CN)C(=O)N[C@@H](CCCCN)C(=O)N[C@H](C(=O)N[C@@H](CC(C)C)C(=O)N[C@@H](CC(C)C)C(N)=O)[C@@H](C)O (H-GLLSRIKTLL-NH2)
MIC (Escherichia coli [2]): 100 µM | HC10 (Erythrocyte): > 500 µM

CCC[C@H](NC(=O)[C@H](CC(C)C)NC(=O)[C@@H](NC(=O)[C@H](CCCCN)NC(=O)[C@H](Cc1ccc2ccccc2c1)NC(=O)[C@H](CCCNC(=N)N)NC(=O)[C@H](CCCCN)NC(=O)[C@H](CC(C)C)NC(=O)[C@H](CCC)NC(=O)CN)[C@@H](C)O)C(N)=O (H-G[Nva]LKR[2Nal]KTL[Nva]-NH2)
MIC (Escherichia coli [2]): 100 µM | HC10 (Erythrocyte): > 500 µM

CC[C@H](C)[C@H](NC(=O)[C@H](CCCNC(=N)N)NC(=O)[C@H](CCO)NC(=O)[C@H](CC(C)C)NC(=O)[C@H](CC(C)C)NC(=O)CN)C(=O)N[C@@H](CCCCN)C(=O)N[C@H](C(=O)N[C@@H](CC(C)C)C(=O)N[C@@H](CC(C)C)C(N)=O)[C@@H](C)O (H-GLL[hSer]RIKTLL-NH2)
MIC (Escherichia coli [2]): 150 µM | HC10 (Erythrocyte): > 500 µM

CC[C@H](C)[C@H](NC(=O)[C@H](CCCNC(=N)N)NC(=O)[C@H](CCCN)NC(=O)[C@H](CC(C)C)NC(=O)[C@H](CC(C)C)NC(=O)CN)C(=O)N[C@@H](CCCCN)C(=O)N[C@H](C(=O)N[C@@H](CC(C)C)C(=O)N[C@@H](CC(C)C)C(N)=O)[C@@H](C)O (H-GLL[Orn]RIKTLL-NH2)
MIC (Escherichia coli [2]): 100 µM | HC10 (Erythrocyte): > 500 µM

CC[C@H](C)[C@H](NC(=O)[C@H](CCCNC(=N)N)NC(=O)[C@H](CN)NC(=O)[C@H](CC(C)C)NC(=O)[C@H](CC(C)C)NC(=O)CN)C(=O)N[C@@H](CCCCN)C(=O)N[C@H](C(=O)N[C@@H](CC(C)C)C(=O)N[C@@H](CC(C)C)C(N)=O)[C@@H](C)O (H-GLL[Dap]RIKTLL-NH2)
MIC (Escherichia coli [2]): 100 µM | HC10 (Erythrocyte): > 500 µM

CC[C@H](C)[C@H](NC(=O)[C@H](CCCNC(=N)N)NC(=O)[C@H](CCCCN)NC(=O)[C@H](CC(C)C)NC(=O)[C@H](C)NC(=O)CN)C(=O)N[C@@H](CCCCN)C(=O)N[C@H](C(=O)N[C@@H](CC(C)C)C(=O)N[C@@H](C)C(N)=O)[C@@H](C)O (H-GALKRIKTLA-NH2)
MIC (Escherichia coli [2]): 50 µM | HC10 (Erythrocyte): > 500 µM
